Assay results taken from PMC7583830 (Molecules, 2020).
Where a SMILES comes first, the peptide text is derived from it. [ ]: non-standard residue; d: D form. The star is where a group is joined. DOTA = O=C(O)CN1CCN(CC(=O)O)CCN(CC(=O)*)CCN(CC(=O)O)CC1; 1Nal = N[C@@H](Cc1cccc2ccccc12)C(=O)O; NMeNle = CCCC[C@H](NC)C(=O)O

Assay: Protein binding in human serum by size exclusion chromatography
Format: in vitro ADME
Details: 24 h incubation
Procedure: For protein binding assessment, the radiolabeled DOTA-peptides were incubated in fresh human serum at 37 °C (500 pmol/mL, n = 2). After 1, 4 and 24 h of incubation, two samples were taken for each time point and analyzed by Sephadex G-50 size-exclusion chromatography (GE Healthcare Illustra, Little Chalfont, UK). The percentage of protein binding was determined by measuring the column and the eluate with the gamma-counter.

## CCCC[C@@H](C(=O)N[C@@H](CC(=O)O)C(=O)N[C@@H](Cc1cccc2ccccc12)C(N)=O)N(C)C(=O)[C@H](Cc1c[nH]c2ccccc12)NC(=O)CNC(=O)[C@H](Cc1ccc(O)cc1)NC(=O)[C@@H]1CCCN1C(=O)[C@@H](CCC(=O)O)NC(=O)CN1CCN(CC(=O)O)CCN(CC(=O)O)CCN(CC(=O)O)CC1 [[^177Lu]Lu-1, metal not drawn] ({DOTA}-[dE]PYGW[NMeNle]D[1Nal]-NH2)
  fraction unbound: 0.622
